Assay results reported in patent US20090181408A1 (AMANO ENZYME INC., priority 2006, published 2009).
Values joined by “and” are separate entries in the source; they are usually repeats but may differ in a detail not shown here. Equal entries are not always repeated.

What was measured:
[1] = target: purified FAD-GDH (Aspergillus oryzae, UniProt A0A1S9DW10); experiment: Substrate specificity 1 of purified FAD-GDH (PMS/NTB); type: biochemical, Aspergillus oryzae BB-56; conditions: reaction rate with respect to D-glucose assumed 100%, PIPES-NaOH pH 6.5, 37° C.
Experimental: Thus, the enzymatic activity was measured. The relative activity with respect to each substrate was calculated when the reaction rate with respect to D-glucose was assumed to be 100% (Table 3).

[2] = tested on: FAD-GDH derived from Aspergillus oryzae BB-56; experiment: Substrate specificity 2, relative activity (PMS/DCIP); type: biochemical; conditions: activity with D-glucose assumed 100%; dialyzed culture filtrate; MOPS pH 7.0, 25° C.
Experimental: (§1) 10 mL of each culture filtrate derived from Aspergillus oryzae BB-56, IAM2603, IAM2628, IAM2683, IAM2736, IAM2706, or NBRC30113 was placed in a dialysis membrane 36 and dialyzed in 10 mM KH2PO4—NaOH at 4° C. over night.
(§2) By measuring the decrease of DCIP by the reduction reaction in the absorbance at 600 nm, the FAD-GDH activity was measured. The activity with respect to each substrate was calculated when the activity with respect to D-glucose as a substrate was assumed to be 100% (Table 4). From the results, the substrate specificities of FAD-GDH derived from Aspergillus oryzae BB-56, IAM2603, IAM2628, IAM2683, IAM2736, IAM2706, or NBRC30113 are the same as each other.

[3] = tested on: FAD-GDH derived from Aspergillus oryzae IAM2736; experiment: as above; type: biochemical; conditions: activity with D-glucose assumed 100%; dialyzed culture filtrate; MOPS pH 7.0, 25° C.
Experimental: as §1, §2

[4] = tested on: FAD-GDH derived from Aspergillus oryzae IAM2603; experiment: as above; type: biochemical; conditions: activity with D-glucose assumed 100%; dialyzed culture filtrate; MOPS pH 7.0, 25° C.
Experimental: as §1, §2

[5] = tested on: FAD-GDH derived from Aspergillus oryzae NBRC30113; experiment: as above; type: biochemical; conditions: activity with D-glucose assumed 100%; dialyzed culture filtrate; MOPS pH 7.0, 25° C.
Experimental: as §1, §2

[6] = tested on: FAD-GDH derived from Aspergillus oryzae IAM2683; experiment: as above; type: biochemical; conditions: activity with D-glucose assumed 100%; dialyzed culture filtrate; MOPS pH 7.0, 25° C.
Experimental: as §1, §2

[7] = tested on: FAD-GDH derived from Aspergillus oryzae IAM2628; experiment: as above; type: biochemical; conditions: activity with D-glucose assumed 100%; dialyzed culture filtrate; MOPS pH 7.0, 25° C.
Experimental: as §1, §2

[8] = tested on: FAD-GDH derived from Aspergillus oryzae IAM2706; experiment: as above; type: biochemical; conditions: activity with D-glucose assumed 100%; dialyzed culture filtrate; MOPS pH 7.0, 25° C.
Experimental: as §1, §2

[9] = tested on: purified FAD-GDH; experiment: Inhibition test with 1,10-phenanthroline (DCIP/1-methoxy PMS); type: biochemical, Aspergillus oryzae
Experimental: The enzymatic activities were measured in the control group and the test group (group in which 1,10-phenanthroline was added) and both activities were compared with each other. Thereby, the inhibition effect of 1,10-phenanthroline on purified FAD-GDH was examined.
Subsequently, 0.05 mL of enzyme solution was added, the change of absorbance in 600 nm of DCIP (ΔABS/min) was measured, and the enzymatic activity was calculated by the following calculation formula.
In the above-mentioned measurement method, the enzymatic activities when 1,10-phenanthroline was added so that the final concentration became 1 mM, 5 mM, 10 mM, 25 mM, and 50 mM were measured, respectively.

[10] = Investigation of temperature for stability; type: physicochemical
Experimental: Herein, the optimum pH is a value measured in, for example, Mcllvaine buffer as mentioned below in the Examples. The optimum temperature is also a value measured in, for example, PIPES-NaOH buffer (pH 6.5). Furthermore, the enzyme maintains 80% or more of the activity when it is treated under a certain pH condition at 37° C. for 30 minutes, the enzyme can be “stable” in the pH condition. […] The Km value and the isoelectric point can be measured and evaluated by the method described below in the Examples (columns 8 and 6).
Purified FAD-GDH was diluted to 1 U/mL with 50 mM PIPES-NaOH buffer (pH 6.5) containing 1 mM calcium chloride, 0.1% (w/v) Triton X-100, and 0.1% (w/v) bovine serum albumin and treated at each designated temperature (5, 30, 40, 50, or 60° C.) for 20 minutes. Each treated solution was cooled in ice and then it was diluted with 50 mM PIPES-NaOH buffer (pH 6.5) containing 1 mM calcium chloride, 0.1% (w/v) Triton X-100, 0.1% (w/v) bovine serum albumin, and the FAD-GDH activity was measured in the above-mentioned method 1. As a control, FAD-GDH of the not thermally treated enzyme was measured. […]

[11] = phosphate buffer pH 7.0, 37° C.; for GO activity: 500 nm
Experimental: D-glucose+O2→D-glucono-δ-lactone+H2O2 Reaction 1
H2O2+4-aminoantipyrine+phenol→quinonimine dye+4H2O Reaction 2
H2O2 produced with GO in the reaction 1 is used in a production reaction of quinonimine dye with peroxidase in the reaction 2. By measuring the quinonimine dye in the absorbance in 500 nm, the GO activity was measured. The amount of enzyme oxidizing 1 μmole of D-glucose for one minute in the reaction condition at 37° C. is defined as one unit of the GO activity.
2.0 mL of phenol solution (0.1M phosphate buffer (pH 7.0) containing 0.152% phenol and 0.152% Triton X-100), 0.5 mL of 0.555 mol/L D-glucose solution, 0.5 mL of 25 U/mL peroxidase (AMANO ENZYME INC) solution, and 0.1 mL of 4 mg/mL 4-aminoantipyrine solution were mixed with each other and kept at 37° C. for 5 minutes. […] Two minutes and 5 minutes after the reaction was started, the absorbance in 500 nm was measured. Furthermore, as enzyme blank, 0.1M phosphate buffer (pH 7.0) was added instead of an enzyme solution, similarly the absorbance was measured. The GO activity was calculated from the following calculation formula.
In the formula, “3” denotes a reaction time, “12.88” denotes molecular absorption constant (mM) of the quinonimine dye, “1/2” denotes a coefficient based on the fact that 1 mole of quinonimine dye is produced from 2 mole of H2O2, “3.2” denotes a final liquid amount of the reaction solution, “0.1” is sample amount (mL), and “Dm” is dilution ratio, respectively.

[12] = Measurement of isoelectric point (glycerol density gradient electrophoresis); type: physicochemical
Experimental: This dialysis sample was subjected to glycerol density gradient electrophoresis. A carrier ampholyte having a column volume of 110 mL (Pharmalyte™ 3-10 for IEF (Amersham Biosciences AB), average final concentration of 1%) was used to allow an electric current to pass at 5° C. at a constant voltage of 400V for 48 hours. After passing current, samples were recovered at the flow rate of about 2 mL/min (one fraction was made to be 1.5 mL). When pH and FAD-GDH activity of each fraction were measured, pI of FAD-GDH derived from Aspergillus oryzae BB-56 was 6.4 (FIG. 9).

[13] = Investigation of optimum temperature; type: biochemical; conditions: PIPES-NaOH buffer pH 6.5, 30-65° C.
Experimental: Thus, the enzymatic activity was measured. […] (FIG. 6).

[14] = PMS/NTB, pH 6.5, 37° C.
Experimental: 2.55 mL of 50 mM PIPES-NaOH buffer (pH 6.5) containing 0.22% (w/v) Triton X-100, 0.1 mL of 1M D-glucose solution, 0.2 mL of 3 mM PMS solution, and 0.1 mL of 6.6 mM NTB solution were mixed with each other and kept at 37° C. for 5 minutes. […] Diformazan produced by the enzyme reaction was measured in the absorbance in 570 nm and the amount Diformazan produced per minute was measured. Thus, the enzymatic activity was measured.

[15] = Investigation of pH for stability; type: physicochemical; conditions: pH 3.0 to pH 7.0, 37° C., 30 minutes
Experimental: Herein, the optimum pH is a value measured in, for example, Mcllvaine buffer as mentioned below in the Examples. The optimum temperature is also a value measured in, for example, PIPES-NaOH buffer (pH 6.5). Furthermore, the enzyme maintains 80% or more of the activity when it is treated under a certain pH condition at 37° C. for 30 minutes, the enzyme can be “stable” in the pH condition. Similarly, when the activity of the enzyme is not substantially deteriorated (that is to say, about 100% of the activity is maintained) after it is treated under a certain temperature condition in a suitable buffer solution (for example, PIPES-NaOH buffer, pH 6.5) for 20 minutes, the enzyme can be “stable” in the temperature condition. The Km value and the isoelectric point can be measured and evaluated by the method described below in the Examples (columns 8 and 6).
Each treatment solution was appropriately diluted with 0.2M KH2PO4—NaOH buffer (pH 6.5) and the FAD-GDH activity was measured by the above-mentioned method 1. As a control, the activity of purified FAD-GDH, which was diluted with 0.1M KH2PO4—NaOH buffer (pH 6.5) and stored in ice, was also measured. As a result, FAD-GDH maintains 80% or more of the activity at least in the range from pH 3.0 to pH 7.0, showing that FAD-GDH is stable in the range from pH 3.0 to pH 7.0 (FIG. 7).

[16] = substrate: OC[C@H]1OC(O)[C@H](O)[C@@H](O)[C@@H]1O; experiment: Measurement of Michaelis-Menten Km constant (Lineweaver-Burk plot); type: biochemical, Aspergillus oryzae BB-56; conditions: other: purified FAD-GDH, PIPES-NaOH pH 6.5, 37° C.

Molecule | relative activity [1] [%] | relative activity, BB-56 [2] [%] | relative activity, IAM2736 [3] [%] | relative activity, IAM2603 [4] [%] | relative activity, NBRC30113 [5] [%] | relative activity, IAM2683 [6] [%] | relative activity, IAM2628 [7] [%] | relative activity, IAM2706 [8] [%] | other results
OC[C@H]1O[C@H](O[C@H]2[C@H](O)[C@@H](O)C(O)O[C@@H]2CO)[C@H](O)[C@@H](O)[C@@H]1O (mixture of isomers) [maltose] | 0.582 | 0 | 0 | 0 | 0 | 0 | 0 | 0 | 
c1cnc2c(c1)ccc1cccnc12 [1,10-phenanthroline] |  |  |  |  |  |  |  |  | Inhibition effect ([9]; final concentration of 1,10-phenanthroline 5 mM): 21%; Inhibition effect ([9]; final concentration of 1,10-phenanthroline 10 mM): 38%
O=CC[C@@H](O)[C@H](O)[C@H](O)CO [2-deoxyglucose] |  | 35.1 | 31.3 | 29.0 | 35.3 | 32.7 | 34.2 | 33.9 | 
O=C(CO)[C@@H](O)[C@H](O)[C@H](O)CO [fructose] |  | 0 | 0 | 0 | 0 | 0 | 1.40 | 0 | 
O=C[C@H](O)[C@@H](O)[C@@H](O)[C@H](O)CO [galactose] | 0.349 |  |  |  |  |  |  |  | 
O=C[C@H](O)[C@@H](O)[C@H](O)CO [xylose] | 22.7 | 17.6 | 14.6 | 16.1 | 17.6 | 17.3 | 16.4 | 16.1 | 
flavin adenine dinucleotide-binding glucose dehydrogenase |  |  |  |  |  |  |  |  | activity maintained after thermal treatment ([10]; 40° C. or less, 20 minutes, pH 6.5): ~100%; temperature for stability ([10]; treated 20 minutes in PIPES-NaOH pH 6.5, stable = about 100% of activity maintained): ≤ 40 °C; GO activity (in words) [11]: does not substantially have the GO activity; GO activity [11]: 0.0025 U/mL; isoelectric point (pI) ([12]; listed as FAD-GDH): about 6.4; isoelectric point (pI) ([12]; listed as FAD-GDH derived from Aspergillus oryzae BB-56): 6.4; optimum temperature [13]: about 60 °C; GDH activity [14]: 119 U/mL; activity maintained after pH treatment [15]: ≥ 80%
glucose oxidase [GO] |  |  |  |  |  |  |  |  | GO activity [11]: 67.8 U/mL; GDH activity [14]: 8.86 U/mL; GDH activity (in words) [14]: also has the GDH activity
maltohexaose | 0.479 |  |  |  |  |  |  |  | 
maltopentaose | 4.55 |  |  |  |  |  |  |  | 
maltotriose | 0.239 |  |  |  |  |  |  |  | 
purified FAD-GDH (Aspergillus oryzae) (protein) SPAGRAKNTTTYDYIVVGGGTSGLVVANRLSENPDVSVLLLEAGASVFNNPDVTNANGYGLAFGSAIDWQYQSINQSYAGGKQQVLRAGKALGGTSTINGMAYTRAEDVQIDVWQKLGNEGWTWKDLLPYYLKSENLTAPTSSQVAAGAAYNPAVNGKEGPLKVGWSGSLASGNLSVALNRTFQAAGVPWVEDVNGGKMRGFNIYPSTLDVDLNVREDAARAYYFPYDDRKNLHLLENTTANRLFWKNGSAEEAIADGVEITSADGKVTRVHAKKEVIISAGALRSPLILELSGVGNPTILKKNNITPRVDLPTVGENLQDQFNNGMAGEGYGVLAGASTVTYPSISDVFGNETDSIVASLRSQLSDYAAATVKVSNGHMKQEDLERLYQLQFDLIVKDKVPIAEILFHPGGGNAVSSEFWGLLPFARGNIHISSNDPTAPAAINPNYFMFEWDGKSQAGIAKYIRKILRSAPLNKLIAKETKPGLSEIPATAADEKWVEWLKANYRSNFHPVGTAAMMPRSIGGVVDNRLRVYGTSNVRVVDASVLPFQVCGHLVSTLYAVAERASDLIKEDAKSA |  |  |  |  |  |  |  |  | Km [16]: 8.2 mM and 8 mM
